Measurements published in PubChem BioAssay (NCI).
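Each compound was tested at five concentrations against cells in 96-well plates for 48 hours. Here, GI50 denotes the concentration required for 50% inhibition of growth. TGI is the concentration that stops growth completely.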

Columns and labels:
Assay in all cases: NCI-60 cell line screen, 48 h
SF-268 CNS = test system: SF-268 CNS
PC-3 prostate = test system: PC-3 prostate
UACC-257 melanoma = test system: UACC-257 melanoma
SF-539 CNS = test system: SF-539 CNS
TK-10 renal = test system: TK-10 renal
HCT-15 colon = test system: HCT-15 colon
BT-549 breast = test system: BT-549 breast
M14 melanoma = test system: M14 melanoma
NCI-H226 lung = test system: NCI-H226 lung
OVCAR-4 ovarian = test system: OVCAR-4 ovarian
K-562 leukemia = test system: K-562 leukemia
SK-OV-3 ovarian = test system: SK-OV-3 ovarian
RXF 393 renal = test system: RXF 393 renal
SW-620 colon = test system: SW-620 colon
SK-MEL-5 melanoma = test system: SK-MEL-5 melanoma
SR leukemia = test system: SR leukemia
HCC-2998 colon = test system: HCC-2998 colon
CAKI-1 renal = test system: CAKI-1 renal
SN12C renal = test system: SN12C renal
SNB-75 CNS = test system: SNB-75 CNS
NCI-H460 lung = test system: NCI-H460 lung
OVCAR-5 ovarian = test system: OVCAR-5 ovarian
786-0 renal = test system: 786-0 renal
CCRF-CEM leukemia = test system: CCRF-CEM leukemia
RPMI-8226 leukemia = test system: RPMI-8226 leukemia
HOP-62 NSCLC = test system: HOP-62 NSCLC
LOX IMVI melanoma = test system: LOX IMVI melanoma
MDA-MB-435 = test system: MDA-MB-435
SK-MEL-28 melanoma = test system: SK-MEL-28 melanoma
A498 renal = test system: A498 renal
T-47D breast = test system: T-47D breast
MALME-3M melanoma = test system: MALME-3M melanoma
IGROV1 ovarian = test system: IGROV1 ovarian
HCT-116 colon = test system: HCT-116 colon
NCI/ADR-RES ovarian = test system: NCI/ADR-RES ovarian
OVCAR-3 ovarian = test system: OVCAR-3 ovarian
HS 578T breast = test system: HS 578T breast
SK-MEL-2 melanoma = test system: SK-MEL-2 melanoma
A549 NSCLC = test system: A549 NSCLC
NCI-H522 lung = test system: NCI-H522 lung
NCI-H23 lung = test system: NCI-H23 lung
MDA-MB-468 breast = test system: MDA-MB-468 breast
OVCAR-8 ovarian = test system: OVCAR-8 ovarian
MDA-MB-231 breast = test system: MDA-MB-231 breast
SF-295 CNS = test system: SF-295 CNS
EKVX NSCLC = test system: EKVX NSCLC
MOLT-4 leukemia = test system: MOLT-4 leukemia
HT29 colon = test system: HT29 colon
U251 CNS = test system: U251 CNS
ACHN renal = test system: ACHN renal
HOP-92 NSCLC = test system: HOP-92 NSCLC
HL-60(TB) leukemia = test system: HL-60(TB) leukemia
UACC-62 melanoma = test system: UACC-62 melanoma
MCF7 breast = test system: MCF7 breast
SNB-19 CNS = test system: SNB-19 CNS
UO-31 renal = test system: UO-31 renal
DU-145 prostate = test system: DU-145 prostate
KM12 colon = test system: KM12 colon
COLO 205 colon = test system: COLO 205 colon

With `O=C(Nc1ccc(Cl)c(C(F)(F)F)c1)c1cncc(C#Cc2cnc3ccc(N4CCOCC4)nn23)c1` the GI50 (SF-268 CNS) was 2.18 µM, the TGI (SF-268 CNS) was 31.5 µM and the GI50 (PC-3 prostate) was 2.51 µM. For the same molecule, the TGI (PC-3 prostate) was 24.4 µM, the GI50 (UACC-257 melanoma) was 2.12 µM and the TGI (UACC-257 melanoma) was 21.4 µM. It also gave a GI50 (SF-539 CNS) of 0.16 µM, a TGI (SF-539 CNS) of 1.64 µM and a GI50 (TK-10 renal) of 2.06 µM. It also gave a TGI (TK-10 renal) of 30.9 µM, a GI50 (HCT-15 colon) of 2.55 µM and a TGI (HCT-15 colon) of over 81 µM. It also gave a GI50 (BT-549 breast) of 1.43 µM, a TGI (BT-549 breast) of 6.62 µM and a GI50 (M14 melanoma) of 0.717 µM. It also gave a TGI (M14 melanoma) of 3.01 µM, a GI50 (NCI-H226 lung) of 0.361 µM and a TGI (NCI-H226 lung) of 12.5 µM. It also gave a GI50 (OVCAR-4 ovarian) of 3.8 µM, a TGI (OVCAR-4 ovarian) of over 81 µM and a GI50 (K-562 leukemia) of 0.728 µM. For the same molecule, the TGI (K-562 leukemia) was over 81 µM, the GI50 (SK-OV-3 ovarian) was 2.59 µM and the TGI (SK-OV-3 ovarian) was 11.5 µM. For the same molecule, the GI50 (RXF 393 renal) was 0.818 µM, the TGI (RXF 393 renal) was 2.87 µM and the GI50 (SW-620 colon) was 1.65 µM. The TGI (SW-620 colon) was over 81 µM, the GI50 (SK-MEL-5 melanoma) was 2.07 µM and the TGI (SK-MEL-5 melanoma) was 7.78 µM. The GI50 (SR leukemia) was 1.41 µM, the TGI (SR leukemia) was over 81 µM and the GI50 (HCC-2998 colon) was 2.06 µM. For the same molecule, the TGI (HCC-2998 colon) was 15.2 µM, the GI50 (CAKI-1 renal) was 2.07 µM and the TGI (CAKI-1 renal) was 11.1 µM. It also gave a GI50 (SN12C renal) of 0.749 µM, a TGI (SN12C renal) of over 81 µM and a GI50 (SNB-75 CNS) of 1.15 µM. For the same molecule, the TGI (SNB-75 CNS) was 4.59 µM, the GI50 (NCI-H460 lung) was 2.67 µM and the TGI (NCI-H460 lung) was 19.1 µM. The GI50 (OVCAR-5 ovarian) was 0.883 µM, the TGI (OVCAR-5 ovarian) was 18.7 µM and the GI50 (786-0 renal) was 2.68 µM. The TGI (786-0 renal) was 11.8 µM, the GI50 (CCRF-CEM leukemia) was 2.58 µM and the TGI (CCRF-CEM leukemia) was over 81 µM. The GI50 (RPMI-8226 leukemia) was 2.42 µM, the TGI (RPMI-8226 leukemia) was over 81 µM and the GI50 (HOP-62 NSCLC) was 0.912 µM. The TGI (HOP-62 NSCLC) was 9.9 µM, the GI50 (LOX IMVI melanoma) was 0.812 µM and the TGI (LOX IMVI melanoma) was 4.35 µM. It also gave a GI50 (MDA-MB-435) of 1.44 µM, a TGI (MDA-MB-435) of over 81 µM and a GI50 (SK-MEL-28 melanoma) of 1.24 µM. The TGI (SK-MEL-28 melanoma) was 7.05 µM, the GI50 (A498 renal) was 1.98 µM and the TGI (A498 renal) was 6.82 µM. It also gave a GI50 (T-47D breast) of 1.89 µM, a TGI (T-47D breast) of 17.4 µM and a GI50 (MALME-3M melanoma) of 0.854 µM. It also gave a TGI (MALME-3M melanoma) of 5.62 µM, a GI50 (IGROV1 ovarian) of 0.579 µM and a TGI (IGROV1 ovarian) of 4.96 µM. It also gave a GI50 (HCT-116 colon) of 0.356 µM, a TGI (HCT-116 colon) of 3.11 µM and a GI50 (NCI/ADR-RES ovarian) of 2.45 µM. For the same molecule, the TGI (NCI/ADR-RES ovarian) was 15 µM, the GI50 (OVCAR-3 ovarian) was 3.93 µM and the TGI (OVCAR-3 ovarian) was over 81 µM. For the same molecule, the GI50 (HS 578T breast) was 0.809 µM, the TGI (HS 578T breast) was 4.15 µM and the GI50 (SK-MEL-2 melanoma) was 1.31 µM. For the same molecule, the TGI (SK-MEL-2 melanoma) was 3.23 µM, the GI50 (A549 NSCLC) was 2.15 µM and the TGI (A549 NSCLC) was over 81 µM. For the same molecule, the GI50 (NCI-H522 lung) was 1.6 µM, the TGI (NCI-H522 lung) was 7.49 µM and the GI50 (NCI-H23 lung) was 0.842 µM. The TGI (NCI-H23 lung) was 5.33 µM, the GI50 (MDA-MB-468 breast) was 2.54 µM and the TGI (MDA-MB-468 breast) was 14.2 µM. For the same molecule, the GI50 (OVCAR-8 ovarian) was 2.5 µM, the TGI (OVCAR-8 ovarian) was 19.4 µM and the GI50 (MDA-MB-231 breast) was 0.321 µM. For the same molecule, the TGI (MDA-MB-231 breast) was 3.1 µM, the GI50 (SF-295 CNS) was 2.65 µM and the TGI (SF-295 CNS) was 33.9 µM. The GI50 (EKVX NSCLC) was 2.12 µM, the TGI (EKVX NSCLC) was 21.2 µM and the GI50 (MOLT-4 leukemia) was 1.59 µM. For the same molecule, the TGI (MOLT-4 leukemia) was 4.77 µM, the GI50 (HT29 colon) was 1 µM and the TGI (HT29 colon) was 11.1 µM. It also gave a GI50 (U251 CNS) of 3.62 µM, a TGI (U251 CNS) of over 81 µM and a GI50 (ACHN renal) of 1.54 µM. The TGI (ACHN renal) was 10.3 µM, the GI50 (HOP-92 NSCLC) was 0.255 µM and the TGI (HOP-92 NSCLC) was 1.55 µM. For the same molecule, the GI50 (HL-60(TB) leukemia) was 0.256 µM, the TGI (HL-60(TB) leukemia) was 3.87 µM and the GI50 (UACC-62 melanoma) was 0.785 µM. The TGI (UACC-62 melanoma) was 3.63 µM, the GI50 (MCF7 breast) was 1.91 µM and the TGI (MCF7 breast) was 15.4 µM. For the same molecule, the GI50 (SNB-19 CNS) was 2.62 µM, the TGI (SNB-19 CNS) was 7.93 µM and the GI50 (UO-31 renal) was 0.562 µM. For the same molecule, the TGI (UO-31 renal) was 6.24 µM, the GI50 (DU-145 prostate) was 2.86 µM and the TGI (DU-145 prostate) was over 81 µM. It also gave a GI50 (KM12 colon) of 0.0081 µM, a TGI (KM12 colon) of 46.4 µM and a GI50 (COLO 205 colon) of 1.17 µM. The TGI (COLO 205 colon) was 9.92 µM.
